According to patent US8227428B2, “Anti-infammatory macrolide” (Glaxo Group Limited, priority 2009, dated 2012):
≈ marks a conversion by molar mass, not a printed value.

What was measured:
[1] = In vitro stability in human plasma; format: in vitro ADME; conditions: 37° C.
Method: An in vitro stability study in human whole blood and plasma is carried out over 24 hours at 37° C. Drug-free freshly collected human blood (CPD—citrate-phosphate-dextrose is used for all blood collections as anticoagulant) and plasma are spiked with a previously prepared standard solution of test compound to a final concentration of 2000 ng/mL. For each compound blood and plasma are spiked in duplicate and incubated for 24 hours. Two separate aliquots of blood or plasma (50 μL) are sampled from each incubation mixture at 0, 15, 30, 60, 120, 240 and 1440 minutes. All aliquots are mixed with an equal volume of water (50 μL) and extracted with 300 μL of acetonitrile/methanol (2:1) containing internal standard (roxithromycin). The samples are then vortexed, centrifuged and analysed by LC/MS/MS (MRM mode). Results are expressed as the percentage of compound remaining, expressed as the ratio of analyte/internal standard.

[2] = Stability in bio-relevant media (SGF, Fasted SIF, Fed SIF) at 37° C.; format: physicochemical
Method: Stability in buffer solutions pH 2 to pH 8 at 25° C., and in bio-relevant media (SGF pH 1.6, Fasted SIF pH 6.5 and Fed SIF pH 5.0) at 37° C., during 24 hours is monitored. The samples are analysed by LC/MS.
SGF (Simulated Gastric Fluid) pH 1.6
Fasted SIF (Simulated Intestinal Fluid) pH 6.5
Fed SIF (Simulated Intestinal Fluid) pH 5.0
Flow: 0.3 mL/min Column temp.: 25° C. Sample temp.: 25° C. (for stability assay in buffer solutions) • 37° C. (for stability assay in bio-relevant media) Injector volume: 3 μL (without injection program) MS Conditions: Instrument HP MS API-ES, positive ion mode Mass Range: 150-1500 Fragmentor: 100 Gain: 1.0 Treshold: 150 Step size: 0.20 Gas Temperature: 350° C. Drying Gas Flow: 13 L/min Nebulizer Pressure: 35 psig Capillary Voltage Positive 4000 V • Negative 4000 V Sample Preparation: a) For Stability Assay in Buffer Solutions
b) For Stability Assay in Bio-Relevat Media
b1) For SGF Media pH 1.6 Testing:
Compounds are dissolved in SGF media pH 1.6 to give 0.2 mg/mL solution in case of compounds 1 and 2, and to give 0.1 mg/mL solution in case of compound 3. Solutions are then stored in a water bath at 37° C. and removed at the proper time point for LC/MS analysis. Before analysis, pH values of prepared sample solutions are checked and adjusted if necessary.
b2) For Fasted SIF Media pH 6.5 Testing:
(§1) Compounds are dissolved in Fasted SIF media pH 6.5 to give 2 mg/mL solution. Solutions are then dispatched into vials that are stored in a water bath at 37° C. and removed at the proper time point and diluted 10 times with CH3CN for LC/MS analysis. Before analysis, pH values of prepared sample solutions are checked and adjusted if necessary.
b3) For Fed SIF Media pH 5.0 Testing:
as §1, with “Fed” for “Fasted”, “5.0” for “6.5”, “40” for “10”

[3] = test system: Escherichia coli ATCC25922; test: Anti-bacterial screening, broth microdilution MIC; format: cell-based; conditions: read-out: minimal inhibitory concentration (MIC)
Method: (§2) Whole-cell antimicrobial activity of compounds against clinically relevant bacteria (Staphylococcus aureus ATCC13709, Streptococcus pneumoniae ATCC49619, Streptococcus pyogenes ATCC700294, Moraxella catarrhalis ATCC23246, Haemophilus influenzae ATCC49247 and Escherichia coli ATCC25922) is determined by broth microdilution using the Clinical and Laboratory Standards (CLSI) recommended procedure (Document M7-[…], Methods for Dilution Susceptibility Tests for Bacteria that Grow Aerobically). Compounds are dissolved in DMSO to produce a 50 mM stock solution. The stock solution is diluted to a concentration of 128 μg/mL in appropriate media (Haemophilus Test Medium for Haemophilus influenzae, Mueller-Hinton Broth for Staphylococcus aureus, Moraxella catarrhalis and Escherichia coli, and Mueller-Hinton Broth supplemented with 5% horse serum for Streptococcus pyogenes and Streptococcus pneumoniae) to produce a working solution. A Tecan Genesis 150 Workstation (Tecan Group Ltd. Mannedorf, Switzerland) is used to prepare serial two-fold dilutions (50 μL aliquots) of the working solution in a U-shape bottom 96 well microtitre plate. After the compounds are diluted, a 50 μL aliquot of the test isolate ( 1×10^6 cfu/ml) is added to each well of the microtitre plate. The final test concentrations range from 0.125-64 μg/mL. Inoculated plates are incubated at 35° C. in ambient air for 18 to 24 hours. The minimum inhibitory concentration (MIC) is determined as the lowest concentration of compound that inhibited visible growth.

[4] = test system: Haemophilus influenzae ATCC49247; test: Anti-bacterial screening, broth microdilution MIC; format: cell-based; conditions: read-out: minimal inhibitory concentration (MIC)
Method: as §2

[5] = test system: Moraxella catarrhalis ATCC23246; test: Anti-bacterial screening, broth microdilution MIC; format: cell-based; conditions: read-out: minimal inhibitory concentration (MIC)
Method: as §2

[6] = test system: Staphylococcus aureus ATCC13709; test: Anti-bacterial screening, broth microdilution MIC; format: cell-based; conditions: read-out: minimal inhibitory concentration (MIC)
Method: as §2

[7] = test system: Streptococcus pneumoniae ATCC49619; test: Anti-bacterial screening, broth microdilution MIC; format: cell-based; conditions: read-out: minimal inhibitory concentration (MIC)
Method: as §2

[8] = test system: Streptococcus pyogenes ATCC700294; test: Anti-bacterial screening, broth microdilution MIC; format: cell-based; conditions: read-out: minimal inhibitory concentration (MIC)
Method: as §2

[9] = Fasted SIF pH 6.5, 37° C., Initial
[10] = Fed SIF pH 5.0, 37° C., Initial

Compound	Percentage (Area %) of the compound observed in Bio-relevant media ([2]; Fasted SIF pH 6.5, 37° C., 1 h) [Area %]	Percentage (Area %) of the compound observed in Bio-relevant media ([2]; Fasted SIF pH 6.5, 37° C., 2 h) [Area %]	Percentage (Area %) of the compound observed in Bio-relevant media ([2]; Fasted SIF pH 6.5, 37° C., 3 h) [Area %]	Percentage (Area %) of the compound observed in Bio-relevant media ([2]; Fasted SIF pH 6.5, 37° C., 4 h) [Area %]	Percentage (Area %) of the compound observed in Bio-relevant media ([2]; Fasted SIF pH 6.5, 37° C., 5 h) [Area %]	Percentage (Area %) of the compound observed in Bio-relevant media [2, 9] [Area %]	Percentage (Area %) of the compound observed in Bio-relevant media ([2]; Fed SIF pH 5.0, 37° C., 1 h) [Area %]	Percentage (Area %) of the compound observed in Bio-relevant media ([2]; Fed SIF pH 5.0, 37° C., 2 h) [Area %]	Percentage (Area %) of the compound observed in Bio-relevant media ([2]; Fed SIF pH 5.0, 37° C., 3 h) [Area %]	Percentage (Area %) of the compound observed in Bio-relevant media ([2]; Fed SIF pH 5.0, 37° C., 4 h) [Area %]	Percentage (Area %) of the compound observed in Bio-relevant media ([2]; Fed SIF pH 5.0, 37° C., 5 h) [Area %]	Percentage (Area %) of the compound observed in Bio-relevant media ([2]; Fed SIF pH 5.0, 37° C., 24 h) [Area %]	Percentage (Area %) of the compound observed in Bio-relevant media [2, 10] [Area %]	Percentage (Area %) of the compound observed in Bio-relevant media ([2]; SGF pH 1.6, 37° C., 1 h) [Area %]	Percentage (Area %) of the compound observed in Bio-relevant media ([2]; SGF pH 1.6, 37° C., 2 h) [Area %]	Percentage (Area %) of the compound observed in Bio-relevant media ([2]; SGF pH 1.6, 37° C., 3 h) [Area %]	Percentage (Area %) of the compound observed in Bio-relevant media ([2]; SGF pH 1.6, 37° C., 4 h) [Area %]	Percentage (Area %) of the compound observed in Bio-relevant media ([2]; SGF pH 1.6, 37° C., 5 h) [Area %]	Percentage (Area %) of the compound observed in Bio-relevant media ([2]; SGF pH 1.6, 37° C., 6 h) [Area %]	Percentage (Area %) of the compound observed in Bio-relevant media ([2]; SGF pH 1.6, 37° C., 8 h) [Area %]	also measured
CC[C@H]1OC(=O)[C@H](C)[C@@H](O[C@H]2C[C@@](C)(OC)[C@@H](OC(=O)CCN(CC)CC)[C@H](C)O2)[C@H](C)[C@@H](O[C@@H]2O[C@H](C)C[C@H](NC)[C@H]2O)[C@](C)(OC)C[C@@H](C)C(=O)N[C@H](C)[C@@H](O)[C@]1(C)O [Example 2, 3′-N-Demethyl-4″-O-(3-diethylaminopropionoyl)-6-O-methyl-9a-aza-9a-homoerythromycin A]	99.6	98.0	93.0	89.7	86.7	100	99.7	99.6	99.4	98.7	98.6	97.4	100	99.3	99.3	96.6	92.9	92.3	91.1	90.1	compound remaining in plasma ([1]; after 24 hours): less than 2%; stability in bio-relevant media SGF pH 1.6 and Fasted SIF pH 6.5 ([2]; 37° C., during 24 hours): Example 2 showed instability in bio-relevant media SGF pH 1.6 and in Fasted SIF pH 6.5.; Percentage (Area %) of the compound observed in Bio-relevant media ([2]; SGF pH 1.6, 37° C., 15): 83.9 Area %; Percentage (Area %) of the compound observed in Bio-relevant media ([2]; SGF pH 1.6, 37° C., 10 h): 87.2 Area %; Percentage (Area %) of the compound observed in Bio-relevant media ([2]; SGF pH 1.6, 37° C., 12 h): 85.4 Area %; Percentage (Area %) of the compound observed in Bio-relevant media ([2]; SGF pH 1.6, 37° C., 18 h): 82.4 Area %; Percentage (Area %) of the compound observed in Bio-relevant media ([2]; SGF pH 1.6, 37° C., 21 h): 81.0 Area %; Percentage (Area %) of the compound observed in Bio-relevant media ([2]; SGF pH 1.6, 37° C., Initial): 100 Area %; MIC [3]: > 64 µg/mL; MIC [4]: > 64 µg/mL; MIC [5]: > 64 µg/mL; MIC [6]: > 64 µg/mL; MIC [7]: > 64 µg/mL; MIC [8]: > 64 µg/mL
CC[C@H]1OC(=O)[C@H](C)[C@@H](O[C@H]2C[C@@](C)(OC)[C@@H](OC(=O)CN(CC)CC)[C@H](C)O2)[C@H](C)[C@@H](O[C@@H]2O[C@H](C)C[C@H](N(C)C)[C@H]2O)[C@](C)(OC)C[C@@H](C)C(=O)N[C@H](C)[C@@H](O)[C@]1(C)O [Example 3, 4″-O-(2-diethylaminoethanoyl)-6-O-methyl-9a-aza-9a-homoerythromycin A]	99.2	98.7	98.3	97.8	97.6	100	100	99.9	100	99.9	99.8	99.8	100	98.5	98.5	98.0	98.0	98.0	95.9	95.7	stability in plasma ([1]; 2000 ng/mL, over 24 hours): stable; Percentage (Area %) of the compound observed in Bio-relevant media ([2]; Fasted SIF pH 6.5, 37° C., 24 h): 95.1 Area %; Percentage (Area %) of the compound observed in Bio-relevant media ([2]; SGF pH 1.6, 37° C., 10 h): 95.0 Area %; Percentage (Area %) of the compound observed in Bio-relevant media ([2]; SGF pH 1.6, 37° C., 12 h): 95.0 Area %; Percentage (Area %) of the compound observed in Bio-relevant media ([2]; SGF pH 1.6, 37° C., 24 h): 94.5 Area %; Percentage (Area %) of the compound observed in Bio-relevant media ([2]; SGF pH 1.6, 37° C., Initial): 100 Area %; stability in all three bio relevant media ([2]; SGF pH 1.6, Fasted SIF pH 6.5, Fed SIF pH 5.0, 37° C., during 24 hours): Examples 1 and 3 showed stability in all three bio relevant media.; MIC [3]: > 64 µg/mL; MIC [4]: > 64 µg/mL; MIC [5]: 8 µg/mL (≈ 9.13 µM); MIC [6]: > 64 µg/mL; MIC [7]: 8 µg/mL (≈ 9.13 µM); MIC [8]: > 64 µg/mL
